# Data published in US9242977B2, “Trk-inhibiting compound” (ONO PHARMACEUTICAL CO., LTD., priority 2012, dated 2016).
# Assays:
# TrkA = TrkA (Homo sapiens (Human), UniProt P04629); test: TrkA kinase-inhibiting activity using human TrkA expressing cells (CellSenser TrkA-NFAT-bla CHO-K1, NGF-stimulated reporter assay); assay type: cell-based; settings: CHO-K1 cells expressing human TrkA and NFAT-bla; NGF 50 ng/ml; read-out: TrkA inhibitory activity (IC50; μM)
# Method: TrkA kinase-inhibiting activity in cell systems was measured using CHO-K1 cells expressing human TrkA and NFAT-bla (CellSenser™ TrkA-NFAT-bla CHO-K1 cells, Invitrogen).
# On the day before the assay, CellSenser™ TrkA-NFAT-bla CHO-K1 cells were suspended in an assay medium (Opti-MEM1 Reduced Serum Medium (Invitrogen) containing 0.5% dialysed fetal bovine serum (Invitrogen), 0.1 mM nonessential amino acids (Invitrogen), 1 mM sodium pyruvate (Invitrogen) and antibiotics (100 U/mL penicillin and 100 μg/mL streptomycin (Invitrogen)) and plated at a density of 2.4×10^4 cells/40 μL/well in a 96-well clear bottom plate (Corning, Catalogue No.: 3882). In some wells were added only the assay medium at 40 μL/well (Cell-free). On the day of the assay, 10 mM of the present compound (DMSO solution) was distributed in a 96-well plate (Costar, Catalogue No.: 3363) and serially diluted with DMSO with the geometrical ratio of 3. The serial dilutions were diluted with the assay medium to 100-fold to prepare a solution of the present compound with a 10-times concentration (DMSO concentration: 1%). To the plate where cells were plated was added the present compound at 5 μL/well and the plate was incubated in a CO2 incubator with 5% CO2, 95% Air at 37° C. for 30 minutes. For a control and a blank, the assay medium containing 1% DMSO was added at 5 μL/well in place of the solution of the present compound. Subsequently the assay medium containing NGF (Mouse 2.5s, Natural, Invitrogen) was added to the plate at 5 µL/well (final concentration of NGF: 50 ng/ml) and the plate was incubated in a CO2 incubator with 5% CO2, 95% Air at 37° C. for 5 hours. For a group of blanks, the assay medium was added in place of NGF at 5 μL/well. A reporter assay detection reagent (10 μL/well) was added to the plate and the plate was then incubated in the dark at room temperature for 120 minutes. The reporter assay detection reagent was prepared from LiveBLAzer™-FRET B/G Loading Kit (Invitrogen). On an Analyst GT (Molecular Devices Japan, K.K.) the wells were irradiated with excitation light at 405 nm and the fluorescence intensities at 460 nm and 530 nm were measured. The time resolved fluorescence resonance energy transfer (TR-FRET) ratio of each well was calculated according to the following Equation 2. TR-FRET Ratio=(A460X−A460F)/(A530X−A530F) Equation 2
# wherein A460X: the fluorescence intensity at 460 nm of the present compound, control or blank;
# A460F: the fluorescence intensity at 460 nm of the Cell-free;
# A530X: the fluorescence intensity at 530 nm of the present compound, control or blank; and
# A530F: the fluorescence intensity at 530 nm of the Cell-free. […]
# The IC50 value of the present compound was calculated from the inhibition curve based on the inhibition rate of the present compound at respective concentrations.
# b-Raf = b-Raf (Homo sapiens (Human), UniProt P15056); test: Enzyme inhibition activity test for kinases other than Trk (selectivity test): b-Raf; assay type: biochemical; settings: test concentration 3 μM; read-out: Inhibition Rate (%) b-Raf
# Method: (§1) A test substance (present compound or comparative compound) was dissolved in dimethylsulfoxide and further diluted with dimethylsulfoxide to prepare a solution having a concentration of 100 times the test concentration of 3 μM. The solution was further diluted to 25-fold with an assay buffer (20 mM HEPES, 0.01% Triton X-100, 2 mM DTT, pH 7.5) to obtain a test substance solution. In a similar manner a positive control substance solution was prepared with a positive control substance.
# (§2) A 4-times concentration solution (5 μL) of the test substance prepared with the assay buffer, 5 μL of a 4-times concentration solution of substrate/ATP/metal (Mg) and 10 μL of a 2-times concentration solution of kinase were mixed in a well of a polypropylene 384-well plate and allowed to react at room temperature for 1 hour. The reaction was terminated by adding 60 μL of a Termination Buffer (QuickScout Screening Assist MSA; Carna Biosciences). The substrate peptide and the phosphorylated peptide in the reaction solution were separated and quantified. The kinase reaction was assessed from the product ratio (P/(P+S)) calculated from the height (S) of the peak of the substrate peptide and the height (P) of the peak of the phosphorylated peptide. Other kinases used in the kinase selectivity experiments were, for example, Abl, c-Met, b-Raf, c-Kit and KDR. The following Table 2 indicates substrates, substrate concentrations, ATP concentrations and positive control substances used in respective kinase enzyme inhibition activity tests.
# (§3) The inhibition rate was calculated from the average signal intensity of the test wells containing respective test substances provided that the average signal intensity of control wells each containing all reaction components was 0% inhibition and the average signal intensity of background wells (without addition of the enzyme) was 100% inhibition.
# c-Kit = c-Kit (Homo sapiens (Human), UniProt P10721); test: Enzyme inhibition activity test for kinases other than Trk (selectivity test): c-Kit; assay type: biochemical; settings: test concentration 3 μM; read-out: Inhibition Rate (%) c-Kit
# Method: as §1, §2, §3
# KDR = KDR (Homo sapiens (Human), UniProt P35968); test: Enzyme inhibition activity test for kinases other than Trk (selectivity test): KDR; assay type: biochemical; settings: test concentration 3 μM; read-out: Inhibition Rate (%) KDR
# Method: as §1, §2, §3
# c-Met = c-Met (Homo sapiens (Human), UniProt P08581); test: Enzyme inhibition activity test for kinases other than Trk (selectivity test): c-Met; assay type: biochemical; settings: test concentration 3 μM; read-out: Inhibition Rate (%) c-Met
# Method: as §1, §2, §3
# Abl = Abl (Homo sapiens (Human), UniProt P00519); test: Enzyme inhibition activity test for kinases other than Trk (selectivity test): Abl; assay type: biochemical; settings: test concentration 3 μM; read-out: Inhibition Rate (%) Abl
# Method: as §1, §2, §3
# Sequence of Abl (P00519 whole entry): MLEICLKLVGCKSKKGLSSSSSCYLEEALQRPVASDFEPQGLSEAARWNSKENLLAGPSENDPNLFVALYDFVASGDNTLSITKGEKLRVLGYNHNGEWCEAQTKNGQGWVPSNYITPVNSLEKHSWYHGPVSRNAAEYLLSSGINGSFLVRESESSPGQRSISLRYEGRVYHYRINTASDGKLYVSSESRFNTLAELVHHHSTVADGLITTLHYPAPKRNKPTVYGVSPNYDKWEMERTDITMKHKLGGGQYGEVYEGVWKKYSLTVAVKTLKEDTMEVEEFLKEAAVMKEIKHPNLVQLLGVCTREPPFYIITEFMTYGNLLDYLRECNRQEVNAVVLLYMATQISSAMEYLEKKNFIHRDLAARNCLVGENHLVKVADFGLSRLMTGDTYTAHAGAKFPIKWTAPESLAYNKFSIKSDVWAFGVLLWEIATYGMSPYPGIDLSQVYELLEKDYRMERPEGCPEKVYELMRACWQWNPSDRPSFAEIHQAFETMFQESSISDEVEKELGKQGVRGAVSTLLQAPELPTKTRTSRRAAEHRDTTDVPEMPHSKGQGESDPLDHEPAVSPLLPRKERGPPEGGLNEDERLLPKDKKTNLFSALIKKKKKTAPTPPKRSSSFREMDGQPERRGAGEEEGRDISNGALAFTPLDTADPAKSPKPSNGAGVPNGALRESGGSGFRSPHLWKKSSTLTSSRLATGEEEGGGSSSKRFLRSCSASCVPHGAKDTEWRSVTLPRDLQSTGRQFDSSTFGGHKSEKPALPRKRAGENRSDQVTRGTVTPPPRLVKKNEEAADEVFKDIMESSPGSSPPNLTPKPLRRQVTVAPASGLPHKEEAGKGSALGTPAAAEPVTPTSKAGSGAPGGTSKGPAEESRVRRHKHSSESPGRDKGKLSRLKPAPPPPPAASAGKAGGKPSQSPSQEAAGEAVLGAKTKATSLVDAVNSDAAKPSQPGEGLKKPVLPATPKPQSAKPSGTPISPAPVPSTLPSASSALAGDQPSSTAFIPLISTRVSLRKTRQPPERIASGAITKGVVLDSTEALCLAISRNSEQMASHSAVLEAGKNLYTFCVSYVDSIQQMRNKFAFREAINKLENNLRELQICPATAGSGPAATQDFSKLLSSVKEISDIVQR
# Sequence of TrkA (P04629 33-796): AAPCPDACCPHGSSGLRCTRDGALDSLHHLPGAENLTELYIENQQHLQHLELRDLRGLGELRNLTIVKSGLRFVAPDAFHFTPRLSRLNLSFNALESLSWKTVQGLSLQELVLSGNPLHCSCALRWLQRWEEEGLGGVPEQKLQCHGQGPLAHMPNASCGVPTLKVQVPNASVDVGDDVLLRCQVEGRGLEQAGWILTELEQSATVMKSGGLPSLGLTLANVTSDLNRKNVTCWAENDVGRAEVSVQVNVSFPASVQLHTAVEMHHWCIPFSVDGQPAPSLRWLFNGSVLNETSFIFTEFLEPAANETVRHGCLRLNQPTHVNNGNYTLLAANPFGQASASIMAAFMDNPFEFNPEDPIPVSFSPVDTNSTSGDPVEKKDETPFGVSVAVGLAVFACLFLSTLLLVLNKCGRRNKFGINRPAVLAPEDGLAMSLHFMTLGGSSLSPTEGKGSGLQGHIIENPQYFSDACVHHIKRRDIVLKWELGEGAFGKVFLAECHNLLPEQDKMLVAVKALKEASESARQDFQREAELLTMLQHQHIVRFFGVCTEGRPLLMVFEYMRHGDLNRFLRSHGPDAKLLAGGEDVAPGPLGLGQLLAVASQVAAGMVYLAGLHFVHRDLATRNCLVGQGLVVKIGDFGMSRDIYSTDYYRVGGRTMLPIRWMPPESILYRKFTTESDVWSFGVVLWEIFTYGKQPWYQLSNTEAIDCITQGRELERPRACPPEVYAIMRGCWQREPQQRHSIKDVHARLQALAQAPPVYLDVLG
# Sequence of c-Met (P08581 25-1390): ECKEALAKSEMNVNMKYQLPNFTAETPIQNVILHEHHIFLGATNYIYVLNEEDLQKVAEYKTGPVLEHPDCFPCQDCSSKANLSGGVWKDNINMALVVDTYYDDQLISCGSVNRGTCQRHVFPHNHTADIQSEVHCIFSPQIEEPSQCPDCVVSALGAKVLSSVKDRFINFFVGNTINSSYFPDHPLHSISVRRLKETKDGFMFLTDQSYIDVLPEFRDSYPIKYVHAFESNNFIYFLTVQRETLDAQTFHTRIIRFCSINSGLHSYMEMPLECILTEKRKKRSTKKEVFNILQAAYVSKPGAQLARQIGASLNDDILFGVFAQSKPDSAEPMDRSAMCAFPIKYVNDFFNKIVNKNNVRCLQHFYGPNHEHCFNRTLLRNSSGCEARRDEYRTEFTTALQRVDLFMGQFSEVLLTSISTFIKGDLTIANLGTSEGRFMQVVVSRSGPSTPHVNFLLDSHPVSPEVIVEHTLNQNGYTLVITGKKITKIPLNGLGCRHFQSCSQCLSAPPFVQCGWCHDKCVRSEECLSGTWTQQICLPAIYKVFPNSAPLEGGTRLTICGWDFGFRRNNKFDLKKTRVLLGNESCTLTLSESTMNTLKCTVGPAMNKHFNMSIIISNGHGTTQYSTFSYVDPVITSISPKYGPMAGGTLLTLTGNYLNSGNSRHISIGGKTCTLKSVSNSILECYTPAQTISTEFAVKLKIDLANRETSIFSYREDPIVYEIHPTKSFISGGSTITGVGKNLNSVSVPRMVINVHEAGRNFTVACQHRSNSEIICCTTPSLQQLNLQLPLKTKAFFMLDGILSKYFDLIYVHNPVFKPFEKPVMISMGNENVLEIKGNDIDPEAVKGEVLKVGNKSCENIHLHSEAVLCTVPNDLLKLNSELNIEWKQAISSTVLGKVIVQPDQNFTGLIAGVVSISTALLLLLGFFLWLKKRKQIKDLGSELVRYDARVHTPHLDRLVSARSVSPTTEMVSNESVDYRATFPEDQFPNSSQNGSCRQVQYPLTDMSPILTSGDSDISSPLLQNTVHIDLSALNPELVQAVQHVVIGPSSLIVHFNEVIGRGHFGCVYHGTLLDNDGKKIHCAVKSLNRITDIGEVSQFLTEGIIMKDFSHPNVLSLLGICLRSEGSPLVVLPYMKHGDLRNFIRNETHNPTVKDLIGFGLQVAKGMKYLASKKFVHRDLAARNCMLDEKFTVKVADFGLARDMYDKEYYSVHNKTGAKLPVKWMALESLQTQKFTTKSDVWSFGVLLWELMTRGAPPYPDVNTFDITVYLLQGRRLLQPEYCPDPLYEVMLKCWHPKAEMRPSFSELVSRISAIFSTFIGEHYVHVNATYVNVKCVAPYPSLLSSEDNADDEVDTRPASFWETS
# Sequence of c-Kit (P10721 26-976): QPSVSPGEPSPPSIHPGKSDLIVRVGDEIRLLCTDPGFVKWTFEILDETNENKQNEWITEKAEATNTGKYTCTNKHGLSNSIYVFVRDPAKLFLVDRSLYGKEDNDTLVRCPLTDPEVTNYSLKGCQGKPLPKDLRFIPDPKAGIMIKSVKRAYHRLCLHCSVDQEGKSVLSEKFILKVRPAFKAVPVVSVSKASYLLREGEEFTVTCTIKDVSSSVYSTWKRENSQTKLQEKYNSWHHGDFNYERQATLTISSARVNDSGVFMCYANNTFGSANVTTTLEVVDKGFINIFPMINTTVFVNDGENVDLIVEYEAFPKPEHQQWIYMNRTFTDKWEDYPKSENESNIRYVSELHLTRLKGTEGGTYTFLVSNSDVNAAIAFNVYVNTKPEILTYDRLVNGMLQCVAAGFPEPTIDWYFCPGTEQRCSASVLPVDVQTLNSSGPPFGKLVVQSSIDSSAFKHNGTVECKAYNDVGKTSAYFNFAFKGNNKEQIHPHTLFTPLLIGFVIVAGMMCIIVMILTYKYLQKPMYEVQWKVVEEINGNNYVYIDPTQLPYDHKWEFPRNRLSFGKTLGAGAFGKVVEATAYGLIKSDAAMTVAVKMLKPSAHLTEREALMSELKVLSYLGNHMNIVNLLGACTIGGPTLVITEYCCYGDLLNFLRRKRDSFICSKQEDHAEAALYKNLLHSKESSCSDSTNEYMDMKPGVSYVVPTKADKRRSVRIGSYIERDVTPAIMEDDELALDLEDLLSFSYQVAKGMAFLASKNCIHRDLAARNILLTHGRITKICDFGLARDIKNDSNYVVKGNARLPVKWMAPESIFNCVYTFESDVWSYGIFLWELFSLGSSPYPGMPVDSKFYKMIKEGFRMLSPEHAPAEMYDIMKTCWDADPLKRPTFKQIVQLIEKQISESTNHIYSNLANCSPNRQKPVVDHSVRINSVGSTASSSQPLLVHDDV
# Sequence of b-Raf (P15056 whole entry): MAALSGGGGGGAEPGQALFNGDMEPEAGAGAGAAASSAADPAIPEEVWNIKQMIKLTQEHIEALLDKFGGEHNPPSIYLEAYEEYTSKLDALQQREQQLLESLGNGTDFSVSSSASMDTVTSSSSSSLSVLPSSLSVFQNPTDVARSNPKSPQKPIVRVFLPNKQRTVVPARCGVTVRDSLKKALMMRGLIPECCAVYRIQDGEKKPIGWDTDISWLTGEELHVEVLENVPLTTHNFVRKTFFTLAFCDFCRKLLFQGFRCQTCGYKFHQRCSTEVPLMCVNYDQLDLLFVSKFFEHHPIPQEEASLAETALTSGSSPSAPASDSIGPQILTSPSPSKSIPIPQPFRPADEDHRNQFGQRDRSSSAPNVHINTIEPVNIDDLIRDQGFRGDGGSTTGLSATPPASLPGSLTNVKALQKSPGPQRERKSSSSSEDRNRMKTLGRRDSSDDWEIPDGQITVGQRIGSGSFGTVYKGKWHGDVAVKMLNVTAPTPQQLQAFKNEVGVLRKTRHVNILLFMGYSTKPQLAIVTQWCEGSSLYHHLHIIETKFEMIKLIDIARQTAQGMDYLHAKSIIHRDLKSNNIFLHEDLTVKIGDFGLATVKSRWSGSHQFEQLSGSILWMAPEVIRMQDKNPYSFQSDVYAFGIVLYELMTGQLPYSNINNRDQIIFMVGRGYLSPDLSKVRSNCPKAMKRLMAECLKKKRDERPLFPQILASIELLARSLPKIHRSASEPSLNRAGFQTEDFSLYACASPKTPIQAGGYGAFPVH
SMILES,IC50 (TrkA) [µM],inhibition at 3 µM (b-Raf) [%],inhibition at 3 µM (c-Kit) [%],inhibition at 3 µM (KDR) [%],inhibition at 3 µM (c-Met) [%],inhibition at 3 µM (Abl) [%]
"CCNc1ncc(-c2ccc(Oc3ncc(NC(=O)Nc4cc(C(F)(F)F)cnc4Oc4ccccc4)cn3)cc2)s1 [Example 48, 1-(2-{4-[2-(ethylamino)-1,3-thiazol-5-yl]phenoxy}-5-pyrimidinyl)-3-[2-phenoxy-5-(trifluoromethyl)-3-pyridinyl]urea]",0.01,–,–,–,–,–
"CCNc1ncc(-c2ccc(Oc3ncc(NC(=O)Nc4cc(C(F)(F)F)cnc4-c4ccc(C)cc4)cn3)cc2)s1 [Example 23, 1-(2-{4-[2-(ethylamino)-1,3-thiazol-5-yl]phenoxy}-5-pyrimidinyl)-3-[2-(4-methylphenyl)-5-(trifluoromethyl)-3-pyridinyl]urea]",0.004,23,31,15,6.5,25
"O=C(Nc1cnc(Oc2ccc(-c3cnc(N4CCCC4=O)s3)cc2)nc1)Nc1cc(C(F)(F)F)cnc1-c1ccccc1 [Example 54, 1-(2-{4-[2-(2-oxo-1-pyrrolidinyl)-1,3-thiazol-5-yl]phenoxy}-5-pyrimidinyl)-3-[2-phenyl-5-(trifluoromethyl)-3-pyridinyl]urea]",0.004,17,7.2,2.4,0,8.9
"Cc1cccc(-c2ncc(C(F)(F)F)cc2NC(=O)Nc2cnc(Oc3ccc(-c4cnc(N5CCCC5=O)s4)cc3)nc2)c1 [Example 57, 1-[2-(3-methylphenyl)-5-(trifluoromethyl)-3-pyridinyl]-3-(2-{4-[2-(2-oxo-1-pyrrolidinyl)-1,3-thiazol-5-yl]phenoxy}-5-pyrimidinyl)urea]",0.003,18,9.1,0,4.9,0
"CCCNc1ncc(-c2ccc(Oc3ncc(NC(=O)Nc4cc(C(F)(F)F)ccc4Cl)cn3)cc2)s1 [Example 85-117, 1-[2-chloro-5-(trifluoromethyl)phenyl]-3-(2-{4-[2-(propylamino)-1,3-thiazol-5-yl]phenoxy}-5-pyrimidinyl)urea]",0.002,13,19,0,0,0
"CCNc1ncc(-c2ccc(Oc3ccc(NC(=O)Nc4cc(C(F)(F)F)cnc4-c4ccc(C)c(C)c4)cn3)cc2)s1 [Example 34, 1-[2-(3,4-dimethylphenyl)-5-(trifluoromethyl)-3-pyridinyl]-3-(6-{4-[2-(ethylamino)-1,3-thiazol-5-yl]phenoxy}-3-pyridinyl)urea]",0.006,–,–,–,–,–
